Measured values as given in PMC8958428 (Yeast (Chichester, England), 2021).

Molecular target: Hem1p (Hem1-His6) (Saccharomyces cerevisiae, UniProt P09950)
Test: ALA synthase activity, control reactions
Assay type: biochemical
Details: concentration not told

Sequence of Hem1p (Hem1-His6) (P09950 10-548): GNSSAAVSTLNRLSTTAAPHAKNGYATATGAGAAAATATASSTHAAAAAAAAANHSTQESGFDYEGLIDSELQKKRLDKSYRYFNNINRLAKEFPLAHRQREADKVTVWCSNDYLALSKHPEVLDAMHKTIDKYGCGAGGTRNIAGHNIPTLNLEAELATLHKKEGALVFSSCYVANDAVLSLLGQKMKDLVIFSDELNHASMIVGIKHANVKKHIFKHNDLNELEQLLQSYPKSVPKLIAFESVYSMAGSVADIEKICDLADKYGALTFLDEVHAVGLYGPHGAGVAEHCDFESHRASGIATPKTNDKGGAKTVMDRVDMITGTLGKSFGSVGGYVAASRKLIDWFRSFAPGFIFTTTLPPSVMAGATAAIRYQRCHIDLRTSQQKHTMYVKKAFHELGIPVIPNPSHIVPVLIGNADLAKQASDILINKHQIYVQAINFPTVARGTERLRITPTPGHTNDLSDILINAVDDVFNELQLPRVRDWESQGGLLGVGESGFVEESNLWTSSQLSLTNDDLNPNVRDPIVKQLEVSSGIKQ

Compound	ALA synthase activity, control reactions
N[C@@H](CS)C(=O)O [L-cysteine]	Control reactions showed that Hem1p was inhibited by both L-serine and L-cysteine
N[C@@H](CO)C(=O)O [L-serine]	Control reactions showed that Hem1p was inhibited by both L-serine and L-cysteine
